This series in a line: solubility of sirolimus in solvents / dispersion media. It counts as physicochemical. As to the method:
Solution 524 is a homogeneous mixture in which therapeutic substance 112 dissolves within a solvent or a solvent mixture. In one embodiment, solution 524 includes a high-capacity solvent 528 which is an organic solvent that has a high capacity to dissolve therapeutic substance 112. High capacity as utilized herein is defined as an ability to dissolve therapeutic substance 112 at concentrations greater than 500 mg of substance per milliliter of solvent. Examples of high capacity drug dissolving solvents for sirolimus and similar substances include but are not limited to tetrahydrofuran (THF), di-chloromethane (DCM), chloroform, and di-methyl-sulfoxide (DMSO). In addition to the high-capacity solvent, solution 524 may include an excipient 526 in order to assist in drug elution. In one embodiment, excipient 526 may be a surfactant such as but not limited to sorbitan fatty acid esters such as sorbitan monooleate and sorbitan monolaurate, polysorbates such as polysorbate 20, polysorbate 60, and polysorbate 80, cyclodextrins such as 2-hydroxypropyl-beta-cyclodextrin and 2,6-di-O-methyl-beta-cyclodextrin, sodium dodecyl sulfate, octyl glucoside, and low molecular weight poly(ethylene glycol)s. In another embodiment, excipient 526 may be a hydrophilic agent such as but not limited to salts such as sodium chloride and other materials such as urea, citric acid, and ascorbic acid. […]

Consider `CO[C@H]1C[C@@H]2CC[C@@H](C)[C@@](O)(O2)C(=O)C(=O)N2CCCC[C@H]2C(=O)O[C@H]([C@H](C)C[C@@H]2CC[C@@H](O)[C@H](OC)C2)CC(=O)[C@H](C)/C=C(\C)[C@@H](O)[C@@H](OC)C(=O)[C@H](C)C[C@H](C)/C=C/C=C/C=C/1C` [sirolimus], for which, under “hexane”, the solubility in hexane entry was “insoluble”. Also, the solubility in water result (water) is “insoluble”.
